In patent US20060069084A1, “Methods of inhibiting kinases” (priority 2001, published 2006) one finds IC50 data, which are given here for 38 compounds.

By IC50 is commonly meant the midpoint of a concentration-inhibition curve. A higher IC50 goes with lower potency.

Common to all, as to format: biochemical
Conditions in all cases: inhibit 50% of activity at 50 μM

For experiment [1], the target named is T1, TYK2 (Homo sapiens, UniProt P29597).
T1 construct: The kinase domain of humanTYK2 was amplified from A549 mRNA; His tag (from pBlueBacHis2A vector; nickel chelate purification) (N); made in house; host or cells: baculovirus; virus made in Sf9, large-scale expression in High Five insect cells
T1 sequence (P29597 897-1176 limits assumed): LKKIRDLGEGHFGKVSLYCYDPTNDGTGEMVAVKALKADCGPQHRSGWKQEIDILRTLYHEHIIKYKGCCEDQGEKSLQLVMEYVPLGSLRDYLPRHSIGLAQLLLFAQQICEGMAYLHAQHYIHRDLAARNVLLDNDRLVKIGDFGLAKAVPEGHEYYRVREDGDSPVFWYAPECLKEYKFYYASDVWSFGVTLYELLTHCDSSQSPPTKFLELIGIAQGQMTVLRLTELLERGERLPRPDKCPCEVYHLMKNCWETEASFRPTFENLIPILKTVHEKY
Nature of the experiment: TYK2 kinase domain capture-based ELISA kinase assay. An outline of the steps: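 His-tagged human TYK2 kinase domain expressed in baculovirus-infected insect cells and Ni-affinity purified. Biotinylated peptide substrate (5 μM final); phosphotyrosine captured on avidin plate and detected by peroxidase-linked PY20 antibody ELISA.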
A general note: An ELISA detects its analyte on a solid surface through an enzyme-linked reagent.

In experiment [2] the target is T2, JAK1 (Homo sapiens, UniProt P23458).
T2 construct: The kinase domain of humanJAK1 was amplified from U937mRNA; His tag (from pFastBac HTb vector; nickel chelate purification) (N); made in house; host or cells: baculovirus; virus made in Sf9, large-scale expression in High Five insect cells
Nature of the experiment: JAK1 kinase domain capture-based ELISA kinase assay. An outline of the steps: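 His-tagged human JAK1 kinase domain was expressed via baculovirus in High Five insect cells and purified on nickel chelate resin. Phosphotyrosine was quantified by ELISA with peroxidase-linked PY20 after capture on avidin plates.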

Experiment [3] deals with T3, JAK3 (Homo sapiens, UniProt P52333).
T3 construct: The kinase domain of humanJAK3 was amplified from U937mRNA; His tag (from pFastBac HTb vector; nickel chelate purification) (N); made in house; host or cells: baculovirus; virus made in Sf9, large-scale expression in High Five insect cells
Nature of the experiment: JAK3 kinase domain capture-based ELISA kinase assay. Put shortly: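 The human JAK3 kinase domain was His-tagged, baculovirus-expressed in High Five cells and nickel-affinity purified. Tyrosine phosphorylation was quantified on avidin-coated ELISA plates with peroxidase-linked anti-phosphotyrosine antibody PY20.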

Experiment [4] addresses T4, JAK2 (Homo sapiens, UniProt O60674).
T4 construct: The kinase domain of humanJAK2 was amplified from U937mRNA; His tag (from pFastBac HTc vector; nickel chelate purification) (N); made in house; host or cells: baculovirus; virus made in Sf9, large-scale expression in High Five insect cells
In words: JAK2 kinase domain capture-based ELISA kinase assay. An outline of the steps: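 His-tagged human JAK2 kinase domain was baculovirus-expressed in High Five insect cells and nickel-purified. Phosphotyrosine was captured on avidin plates and detected by ELISA with peroxidase-linked PY20.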

T3 sequence (P52333 822-1111 limits assumed): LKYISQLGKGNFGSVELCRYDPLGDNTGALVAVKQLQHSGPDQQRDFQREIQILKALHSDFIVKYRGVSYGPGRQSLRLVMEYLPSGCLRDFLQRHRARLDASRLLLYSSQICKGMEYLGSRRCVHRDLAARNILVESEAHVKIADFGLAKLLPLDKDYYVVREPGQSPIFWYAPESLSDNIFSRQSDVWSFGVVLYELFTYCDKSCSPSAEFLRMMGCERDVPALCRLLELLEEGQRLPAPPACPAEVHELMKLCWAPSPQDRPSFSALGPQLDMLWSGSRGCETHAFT
T4 sequence (O60674 849-1124 limits assumed): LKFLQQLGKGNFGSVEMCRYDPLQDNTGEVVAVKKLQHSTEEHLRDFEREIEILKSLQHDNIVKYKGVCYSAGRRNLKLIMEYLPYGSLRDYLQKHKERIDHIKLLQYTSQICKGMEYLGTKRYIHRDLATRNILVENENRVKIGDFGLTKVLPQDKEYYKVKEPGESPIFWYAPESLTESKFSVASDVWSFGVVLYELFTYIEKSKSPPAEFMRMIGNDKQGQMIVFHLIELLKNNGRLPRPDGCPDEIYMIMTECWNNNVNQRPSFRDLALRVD
T2 sequence (P23458 875-1153 limits assumed): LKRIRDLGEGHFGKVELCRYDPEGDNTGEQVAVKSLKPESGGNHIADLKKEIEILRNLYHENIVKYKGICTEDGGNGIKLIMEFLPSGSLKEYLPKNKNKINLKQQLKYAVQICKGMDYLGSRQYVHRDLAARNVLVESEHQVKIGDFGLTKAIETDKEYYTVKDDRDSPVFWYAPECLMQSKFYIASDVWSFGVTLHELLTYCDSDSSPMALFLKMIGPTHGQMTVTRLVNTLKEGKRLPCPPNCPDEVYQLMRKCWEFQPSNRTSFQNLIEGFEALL

Consider `Nc1cccc(-c2cn3ccnc3c(Nc3ccccc3)n2)c1` [drawing 71], for which the IC50 in experiment [1] (Table 5), in experiment [2] (Table 5), in experiment [3] (Table 5) and in experiment [4] (Table 5) was under 50 µM each time.

Consider `CCN(CCO)c1ccc(Nc2nc(-c3ccccc3CO)cn3ccnc23)cc1` [drawing 96], for which the IC50 in experiment [1] (Table 6) is under 50 µM; in experiment [2] (Table 6) it was under 50 µM; in experiment [3] (Table 6) it was over 50 µM; in experiment [4] (Table 6), under 50 µM.

`Oc1ccc(-c2cn3ccnc3c(Nc3ccccc3)n2)cc1`: the IC50 in experiment [1] (Table 6) is over 50 µM; in experiment [2] (Table 6), under 50 µM; in experiment [3] (Table 6), over 50 µM; in experiment [4] (Table 6), under 50 µM.

On to `COc1cncc(-c2cncc(NCc3ccccc3)n2)c1` [CYT24605], for which the half-inhibitory concentration (IC50) in experiment [1] (Table 3), in experiment [2] (Table 3), in experiment [3] (Table 3) and in experiment [4] (Table 3) was under 50 µM each time.

In the case of `c1cc(-c2cn3ccnc3c(Nc3ccc(N4CCOCC4)cc3)n2)ccn1` [drawing 61], the IC50 in experiment [1] (Table 5), in experiment [2] (Table 5), in experiment [3] (Table 5) and in experiment [4] (Table 5) was under 50 µM in each case.

With `Oc1ccc(-c2cn3ccnc3c(N3CCOCC3)n2)cc1` [drawing 75], the IC50 in experiment [1] (Table 5), in experiment [2] (Table 5), in experiment [3] (Table 5) and in experiment [4] (Table 5) was under 50 µM in each case.

Consider `CC(=O)Nc1ccc(Nc2nc(-c3ccc4ccccc4c3)cn3ccnc23)cc1`, for which the IC50 is under 50 µM in experiment [1] (Table 6), under 50 µM in experiment [2] (Table 6), over 50 µM in experiment [3] (Table 6) and under 50 µM in experiment [4] (Table 6).

Consider `c1ccc(CNc2cncc(-c3cccnc3)n2)cc1` [CYT24803], for which the IC50 in experiment [1] (Table 3), in experiment [2] (Table 3), in experiment [3] (Table 3) and in experiment [4] (Table 3) was under 50 µM in each case.

On to `Oc1cccc(-c2cn3ccnc3c(N3CCOCC3)n2)c1`, for which the 50% inhibitory concentration (IC50) in experiment [1] (Table 6) is over 50 µM; in experiment [2] (Table 6) it was over 50 µM; in experiment [3] (Table 6), over 50 µM; in experiment [4] (Table 6) it was under 50 µM.

For the compound `Clc1ccccc1-c1cn2ccnc2c(NCc2ccccn2)n1`, the IC50 in experiment [1] (Table 6) was over 50 µM; in experiment [2] (Table 6), over 50 µM; in experiment [3] (Table 6), over 50 µM; in experiment [4] (Table 6), under 50 µM.

`c1cncc(-c2cn3ccnc3c(Nc3ccc(N4CCOCC4)cc3)n2)c1` [drawing 62]: the half-inhibitory concentration (IC50) in experiment [1] (Table 5), in experiment [2] (Table 5), in experiment [3] (Table 5) and in experiment [4] (Table 5) was under 50 µM each time.

On to `c1cncc(CCNc2nc(-c3ccco3)cn3ccnc23)c1`, for which the IC50 was over 50 µM in experiment [1] (Table 6), over 50 µM in experiment [2] (Table 6), under 50 µM in experiment [3] (Table 6) and over 50 µM in experiment [4] (Table 6).

As to `c1ccc(-c2cn3ccnc3c(NCc3ccncc3)n2)cc1`, the IC50 in experiment [1] (Table 6) is over 50 µM; in experiment [2] (Table 6), under 50 µM; in experiment [3] (Table 6), over 50 µM; in experiment [4] (Table 6), over 50 µM.

For `O=C(NCCO)c1cccc(-c2cn3ccnc3c(Nc3ccc(N4CCOCC4)cc3)n2)c1`, the IC50 in experiment [1] (Table 5), in experiment [2] (Table 5), in experiment [3] (Table 5) and in experiment [4] (Table 5) was under 50 µM throughout.

For `COc1cncc(-c2cccc(Nc3cccnc3)n2)c1` [CYT14607], the IC50 in experiment [1] (Table 3), in experiment [2] (Table 3), in experiment [3] (Table 3) and in experiment [4] (Table 3) was under 50 µM each time.

For `COCCNc1nc(-c2ccccc2)cn2ccnc12` [drawing 85], the 50% inhibitory concentration (IC50) in experiment [1] (Table 5), in experiment [2] (Table 5), in experiment [3] (Table 5) and in experiment [4] (Table 5) was under 50 µM each time.

Regarding `COc1cncc(-c2cncc(NCc3cccs3)n2)c1` [CYT20303], the IC50 in experiment [1] (Table 3), in experiment [2] (Table 3), in experiment [3] (Table 3) and in experiment [4] (Table 3) was under 50 µM in each case.

For the compound `c1ccc2cc(-c3cn4ccnc4c(Nc4ccc(N5CCOCC5)cc4)n3)ccc2c1`, the concentration for half-maximal inhibition (IC50) in experiment [1] (Table 6) is over 50 µM; in experiment [2] (Table 6) it was under 50 µM; in experiment [3] (Table 6), over 50 µM; in experiment [4] (Table 6) it was under 50 µM.

On to `Fc1ccccc1-c1cn2ccnc2c(NCc2ccccn2)n1`, for which the 50% inhibitory concentration (IC50) in experiment [1] (Table 5), in experiment [2] (Table 5), in experiment [3] (Table 5) and in experiment [4] (Table 5) was under 50 µM in each case.

Consider `c1cncc(-c2cn3ccnc3c(Nc3ccc(N4CCOCC4)cc3)n2)c1` [drawing 131], for which the IC50 in experiment [1] (Table 6) is under 50 µM; in experiment [2] (Table 6), under 50 µM; in experiment [3] (Table 6), over 50 µM; in experiment [4] (Table 6), under 50 µM.

As for `CN1CCCN(c2nc(-c3cccc4ccccc34)cn3ccnc23)CC1`, the IC50 in experiment [1] (Table 6) was over 50 µM; in experiment [2] (Table 6) it was under 50 µM; in experiment [3] (Table 6), over 50 µM; in experiment [4] (Table 6), over 50 µM.

For `Oc1cccc(-c2cn3ccnc3c(NC3CC3)n2)c1`, the IC50 in experiment [1] (Table 6) was under 50 µM; in experiment [2] (Table 6), under 50 µM; in experiment [3] (Table 6), over 50 µM; in experiment [4] (Table 6), under 50 µM.

Turning to `CC(=O)Nc1ccc(Nc2nc(-c3ccc4c(c3)OCO4)cn3ccnc23)cc1`, the IC50 in experiment [1] (Table 6), in experiment [2] (Table 6), in experiment [3] (Table 6) and in experiment [4] (Table 6) was under 50 µM throughout.

Take `CN(C)C(=O)COc1cccc(Nc2nc(-c3ccccc3Cl)cn3ccnc23)c1`: the IC50 in experiment [1] (Table 6), in experiment [2] (Table 6), in experiment [3] (Table 6) and in experiment [4] (Table 6) was under 50 µM throughout.

For `CC(=O)Nc1cccc(-c2cn3ccnc3c(N[C@@H](CO)C(C)C)n2)c1`, the IC50 in experiment [1] (Table 5), in experiment [2] (Table 5), in experiment [3] (Table 5) and in experiment [4] (Table 5) was under 50 µM in each case.

`CCCC/C=C/c1cn2ccnc2c(Nc2ccc(OC)nc2)n1`: the IC50 was over 50 µM in experiment [1] (Table 6), over 50 µM in experiment [2] (Table 6), over 50 µM in experiment [3] (Table 6) and under 50 µM in experiment [4] (Table 6).

Regarding `COc1ccc(Nc2nc(-c3ccc4ccccc4c3)cn3ccnc23)cn1`, the 50% inhibitory concentration (IC50) in experiment [1] (Table 5), in experiment [2] (Table 5), in experiment [3] (Table 5) and in experiment [4] (Table 5) was under 50 µM in each case.

Turning to `CCN(CCO)c1ccc(Nc2nc(-c3cccc4ccccc34)cn3ccnc23)cc1` [drawing 94], the IC50 in experiment [1] (Table 6) is over 50 µM; in experiment [2] (Table 6) it was under 50 µM; in experiment [3] (Table 6), over 50 µM; in experiment [4] (Table 6) it was under 50 µM.

As for `CCC(CO)Nc1nc(-c2ccco2)cn2ccnc12` (centres unmarked), the half-maximal inhibitory concentration (IC50) was over 50 µM in experiment [1] (Table 6), under 50 µM in experiment [2] (Table 6), under 50 µM in experiment [3] (Table 6) and under 50 µM in experiment [4] (Table 6).

Consider `CC(=O)Nc1cccc(-c2cn3ccnc3c(Nc3ccc(N4CCOCC4)cc3)n2)c1`, for which the IC50 was under 50 µM in experiment [1] (Table 6), under 50 µM in experiment [2] (Table 6), over 50 µM in experiment [3] (Table 6) and under 50 µM in experiment [4] (Table 6).

Take `CCNc1nc(-c2cccc(O)c2)cn2ccnc12`: the IC50 in experiment [1] (Table 6) was over 50 µM; in experiment [2] (Table 6) it was under 50 µM; in experiment [3] (Table 6) it was under 50 µM; in experiment [4] (Table 6) it was under 50 µM.

Consider `Cc1ccc(S(=O)(=O)Nc2ccc(Nc3nc(-c4ccccc4)cn4ccnc34)cc2)cc1`, for which the IC50 in experiment [1] (Table 5), in experiment [2] (Table 5), in experiment [3] (Table 5) and in experiment [4] (Table 5) was under 50 µM in each case.

`COCCNc1nc(-c2ccccc2)cn2ccnc12` [drawing 93]: the concentration for half-maximal inhibition (IC50) in experiment [1] (Table 6) is over 50 µM; in experiment [2] (Table 6) it was under 50 µM; in experiment [3] (Table 6), over 50 µM; in experiment [4] (Table 6) it was under 50 µM.

`Brc1cn2ccnc2c(Nc2ccccc2)n1`: the 50% inhibitory concentration (IC50) in experiment [1] (Table 6) was under 50 µM; in experiment [2] (Table 6), under 50 µM; in experiment [3] (Table 6), over 50 µM; in experiment [4] (Table 6), under 50 µM.

Turning to `c1cncc(Nc2cccc(-c3ccncc3)n2)c1` [CYT14804], the IC50 in experiment [1] (Table 3), in experiment [2] (Table 3), in experiment [3] (Table 3) and in experiment [4] (Table 3) was under 50 µM in each case.

On to `COc1ccc(Nc2nc(-c3ccccc3OC)cn3ccnc23)cn1`, for which the IC50 in experiment [1] (Table 6) was under 50 µM; in experiment [2] (Table 6), under 50 µM; in experiment [3] (Table 6), over 50 µM; in experiment [4] (Table 6), under 50 µM.

For `Fc1ccccc1-c1cn2ccnc2c(NCCc2cccnc2)n1`, the IC50 is over 50 µM in experiment [1] (Table 6), under 50 µM in experiment [2] (Table 6), under 50 µM in experiment [3] (Table 6) and under 50 µM in experiment [4] (Table 6).

For `CC(=O)c1ccc(-c2cn3ccnc3c(Nc3ccccc3)n2)s1`, the half-inhibitory concentration (IC50) in experiment [1] (Table 6), in experiment [2] (Table 6), in experiment [3] (Table 6) and in experiment [4] (Table 6) was under 50 µM each time.
